Results published in paper PMC7366380, “Discovery of a Potent and Selective Covalent Inhibitor and Activity-Based Probe for the Deubiquitylating Enzyme UCHL1, with Antifibrotic Activity” (Journal of the American Chemical Society, 2020).
Where “and” joins values, the source holds several entries; their conditions need not be identical. Identical values can stand only once. Values belong to the compound of their own block, whether it stands above or below them.

What was measured:
[1] = test system: primary human bronchial fibroblasts from IPF patients (TGF-β1-triggered αSMA); test: Fibroblast-to-myofibroblast transition (FMT) assay, αSMA by high content analysis; settings: for αSMA inhibition / transdifferentiation (in words): IPF donor fibroblasts, TGF-β1, 3 days, high content imaging; for IC50: Homo sapiens, Fibroblast, 72 h, read-out: αSMA inhibition IC50 (95% CI)
TRABID = target: T1, TRABID (Homo sapiens, UniProt Q9UGI0); test: Biochemical DUB selectivity profiling assay: TRABID; settings: Ub-Rho110 400 nM, buffer B; read-out: Biochemical IC50 range, TRABID
T1 sequence (Q9UGI0 1-708): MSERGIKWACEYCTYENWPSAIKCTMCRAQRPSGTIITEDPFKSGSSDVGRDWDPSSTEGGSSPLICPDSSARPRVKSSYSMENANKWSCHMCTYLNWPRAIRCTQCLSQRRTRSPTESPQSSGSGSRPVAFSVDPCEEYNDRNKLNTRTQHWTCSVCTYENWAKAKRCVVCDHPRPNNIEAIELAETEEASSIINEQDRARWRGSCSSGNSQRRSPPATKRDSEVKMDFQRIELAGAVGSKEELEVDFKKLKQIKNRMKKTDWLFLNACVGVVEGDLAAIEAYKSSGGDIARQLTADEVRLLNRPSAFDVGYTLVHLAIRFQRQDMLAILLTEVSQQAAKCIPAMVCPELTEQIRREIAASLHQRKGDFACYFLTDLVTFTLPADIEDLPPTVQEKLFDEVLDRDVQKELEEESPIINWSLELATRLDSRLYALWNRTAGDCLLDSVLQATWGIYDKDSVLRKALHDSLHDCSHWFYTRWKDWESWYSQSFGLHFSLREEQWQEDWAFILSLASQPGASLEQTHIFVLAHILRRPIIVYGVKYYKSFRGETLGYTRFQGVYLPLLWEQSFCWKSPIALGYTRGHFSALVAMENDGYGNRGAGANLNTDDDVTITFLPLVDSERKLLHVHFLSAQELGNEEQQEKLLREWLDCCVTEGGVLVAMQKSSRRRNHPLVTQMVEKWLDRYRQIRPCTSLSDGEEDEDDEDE
Experimental: DUB Assay Substrate Substrate
Buffer Concentration (nM) […]
Sepharose® 4B resin (GE Healthcare).
10 kDa molecular weight cut-off (MWCO)).
Fractions containing protein
Protein concentration was […]
reaction volume of 21 μL. […]
compound (final concentration 5 nM).
IC50 values were determined
Biochemical DUB selectivity profiling assays […]
in 40 µL total reaction volume.

USP30 = target: T2, USP30 (Homo sapiens, UniProt Q70CQ3); test: biochemical
T2 sequence (Q70CQ3 1-517): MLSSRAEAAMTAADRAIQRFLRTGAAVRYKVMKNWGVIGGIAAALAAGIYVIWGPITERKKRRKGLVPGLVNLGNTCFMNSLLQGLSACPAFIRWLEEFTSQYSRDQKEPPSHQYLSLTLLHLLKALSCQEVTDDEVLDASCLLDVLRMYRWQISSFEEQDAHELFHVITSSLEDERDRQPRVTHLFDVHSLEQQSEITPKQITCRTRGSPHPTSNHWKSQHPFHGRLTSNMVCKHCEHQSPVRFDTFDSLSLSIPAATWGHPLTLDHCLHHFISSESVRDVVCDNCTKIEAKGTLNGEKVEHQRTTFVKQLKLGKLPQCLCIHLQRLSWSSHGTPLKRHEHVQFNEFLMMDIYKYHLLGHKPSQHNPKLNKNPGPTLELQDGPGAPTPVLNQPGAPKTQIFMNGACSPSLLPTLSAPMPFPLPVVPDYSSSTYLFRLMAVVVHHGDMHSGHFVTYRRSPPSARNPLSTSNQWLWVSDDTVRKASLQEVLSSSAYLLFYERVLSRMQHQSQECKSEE

UCHL3 = target: T3, UCHL3 (Homo sapiens, UniProt P15374); test: In-cell proteome-wide competitive ABPP, HEK293: UCHL3; settings: for Log2 reporter intensity values: UCHL3: DMSO substract (FC); for Log2 reporter intensity values: UCHL3 / Log2 reporter intensity values: replicates A-C; for Log2 reporter intensity values: UCHL3, DMSO subtracted
T3 sequence (P15374 1-230): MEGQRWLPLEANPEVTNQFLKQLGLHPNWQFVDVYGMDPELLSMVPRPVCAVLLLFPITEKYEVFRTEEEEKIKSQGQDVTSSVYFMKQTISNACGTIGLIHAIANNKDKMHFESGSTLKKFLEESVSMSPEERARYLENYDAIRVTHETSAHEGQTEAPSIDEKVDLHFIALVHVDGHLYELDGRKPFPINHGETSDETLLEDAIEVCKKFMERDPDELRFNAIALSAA

USP8 = target: T4, USP8 (Homo sapiens, UniProt P40818); test: biochemical
T4 sequence (P40818 1-1118): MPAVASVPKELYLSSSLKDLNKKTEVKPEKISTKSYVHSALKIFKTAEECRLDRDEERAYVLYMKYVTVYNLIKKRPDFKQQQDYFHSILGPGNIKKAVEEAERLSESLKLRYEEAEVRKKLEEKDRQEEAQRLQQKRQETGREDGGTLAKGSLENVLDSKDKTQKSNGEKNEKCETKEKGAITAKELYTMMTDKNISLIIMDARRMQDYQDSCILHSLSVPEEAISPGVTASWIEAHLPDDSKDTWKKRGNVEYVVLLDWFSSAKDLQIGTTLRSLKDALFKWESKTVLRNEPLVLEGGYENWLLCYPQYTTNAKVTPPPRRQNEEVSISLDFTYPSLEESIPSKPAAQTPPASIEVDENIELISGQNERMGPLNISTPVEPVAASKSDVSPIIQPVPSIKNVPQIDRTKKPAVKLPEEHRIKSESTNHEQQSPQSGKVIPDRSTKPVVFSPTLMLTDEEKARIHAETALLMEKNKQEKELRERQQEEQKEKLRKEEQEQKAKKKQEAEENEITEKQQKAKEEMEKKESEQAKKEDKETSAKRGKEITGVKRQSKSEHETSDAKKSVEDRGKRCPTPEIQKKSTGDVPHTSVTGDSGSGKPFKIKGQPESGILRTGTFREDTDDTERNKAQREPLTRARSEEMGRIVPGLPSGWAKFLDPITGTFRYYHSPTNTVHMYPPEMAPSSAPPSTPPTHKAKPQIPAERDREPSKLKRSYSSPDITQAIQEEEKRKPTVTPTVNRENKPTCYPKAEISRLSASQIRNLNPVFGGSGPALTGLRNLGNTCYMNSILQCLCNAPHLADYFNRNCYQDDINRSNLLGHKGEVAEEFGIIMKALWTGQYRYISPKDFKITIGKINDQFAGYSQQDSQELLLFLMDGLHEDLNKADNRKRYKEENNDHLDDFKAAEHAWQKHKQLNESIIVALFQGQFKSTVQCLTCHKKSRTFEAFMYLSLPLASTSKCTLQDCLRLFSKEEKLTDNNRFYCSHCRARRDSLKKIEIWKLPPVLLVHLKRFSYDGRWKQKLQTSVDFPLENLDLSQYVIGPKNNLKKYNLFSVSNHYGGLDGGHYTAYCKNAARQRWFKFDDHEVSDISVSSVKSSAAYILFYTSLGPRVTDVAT

SMILES: CC(=O)O/N=C1\C(=O)N(Cc2cc(Cl)ccc2Cl)c2ccc(Cl)cc21 [LDN-57444, reference compound]
IC50 [1]: 3.7 µM
αSMA inhibition / transdifferentiation (in words) [1]: not and weak αSMA inhibition
IC50 (TRABID): > 10 µM
IC50 (USP30): > 10 µM
IC50 (USP8): > 10 µM

SMILES: CC(=O)O/N=C1\C(=O)N(Cc2cc(Cl)ccc2Cl)c2ccc(Cl)cc21 [LDN]
Log2 reporter intensity values: UCHL3 (UCHL3; LDN at 5 μM, competition with ABP 2): 1.511 and 1.383 and 1.619
Log2 reporter intensity values: UCHL3 (UCHL3; LDN at 25 μM, competition with ABP 2): 1.505 and 1.419 and 1.696
Log2 reporter intensity values (UCHL3; LDN at 5 μM): 0.5958 and 0.4677 and 0.6949
Log2 reporter intensity values (UCHL3; LDN at 25 μM): 0.5899 and 0.5052 and 0.7625
Log2 reporter intensity values (UCHL3; LDN_5 μM): 0.5031 and 0.3746 and 0.6105
Log2 reporter intensity values (UCHL3; LDN_25 μM): 0.4969 and 0.4111 and 0.6882

Further lines, with some results ahead:

IC50 (TRABID): > 10 µM
IC50 (USP30): 1 to 10 µM
Log2 reporter intensity values: UCHL3 (UCHL3; 1 at 1 μM, competition with ABP 2): 0.8904 and 1.311 and 0.2787
Log2 reporter intensity values: UCHL3 (UCHL3; 1 at 4 μM, competition with ABP 2): 0.7742 and 0.7243 and 0.9234
UCHL3 response in proteome-wide competitive ABPP (UCHL3; HEK293, compound 60 min, then 2 (20 nM) 10 min): small response
Log2 reporter intensity values (UCHL3; 1_1 μM): -0.1178 and 0.3024 and -0.7296
Log2 reporter intensity values (UCHL3; 1_4 μM): -0.234 and -0.284 and -0.08483
Log2 reporter intensity values (UCHL3; 1 at 1 μM): -0.1675 and 0.3902 and -1.8434
Log2 reporter intensity values (UCHL3; 1 at 4 μM): -0.3692 and -0.4654 and -0.115
IC50 (USP8): > 10 µM
SMILES: N#CN1CCC[C@H]1C(=O)N1CCc2c(-c3c[nH]c4ncccc34)cccc21 [Compound 1]
αSMA inhibition / transdifferentiation (in words) [1]: inhibit transdifferentiation

IC50 (TRABID): > 10 µM
Log2 reporter intensity values: UCHL3 (UCHL3; 20 nM ABP 2 alone): 2.007 and 1.656 and 1.566
SMILES: C#Cc1cnc2[nH]cc(-c3cccc4c3CCN4C(=O)[C@@H]3CCCN3C#N)c2c1 [Compound 2]
αSMA inhibition / transdifferentiation (in words) [1]: inhibit transdifferentiation
Log2 reporter intensity values (UCHL3; 20 nM ABP 2): 1.005 and 0.7277 and 0.6472 and 0.9988 and 0.6478 and 0.5579

IC50 (TRABID): > 10 µM
IC50 (USP30): > 10 µM
Log2 reporter intensity values: UCHL3 (UCHL3; 3 at 1 μM, competition with ABP 2): 1.501 and 1.531 and 1.889
Log2 reporter intensity values: UCHL3 (UCHL3; 3 at 4 μM, competition with ABP 2): 1.509 and 1.358 and 1.681
Log2 reporter intensity values (UCHL3; 3_1 μM): 0.4924 and 0.5226 and 0.8806
Log2 reporter intensity values (UCHL3; 3_4 μM): 0.5004 and 0.3501 and 0.6732
Log2 reporter intensity values (UCHL3; 3 at 1 μM): 0.5856 and 0.6143 and 0.9175
Log2 reporter intensity values (UCHL3; 3 at 4 μM): 0.5932 and 0.4418 and 0.7497
IC50 (USP8): > 10 µM
SMILES: N#CN1CCC[C@@H]1C(=O)N1CCc2c(-c3c[nH]c4ncccc34)cccc21 [Compound 3]
IC50 [1]: 2 µM
αSMA inhibition / transdifferentiation (in words) [1]: not and minimal αSMA inhibition
